Among the data in PMC3217100 (2011) are Ki values, retold here.

Like-named read-outs stand apart in the source and are kept apart here.

Test [1] has as its target T1, nicotinic α4β2 receptor (α4β2 nAChR) (Rattus norvegicus, UniProt P09483+P12390). Briefly: radioligand competition with 3H-cytisine, rat brain homogenate. Type of test: binding.
Test [2] deals with T1, nicotinic α4β2 receptor (α4β2 nAChR). The description is as above. Format: binding. The conditions noted are these: read-out: Ki ^a; cited from earlier work.

`FCCCc1cncc(OC[C@@H]2CCN2)c1` [compound 4, 3-(2-(S)-azetidinylmethoxy)-5-(3′-fluoropropyl)pyridine] displayed a Ki in test [1] of 0.67 nM.

For `FCCCc1cncc(OC[C@@H]2CCCN2)c1` [compound 3, Nifrolidine], the inhibitory constant (Ki) in test [2] is 0.8 nM.
